The results in this text go back to ChEMBL document CHEMBL1201862, “PubChem BioAssay data set” (2004).

Test systems include MDA-MB-231; HCT-116; K562; NCI/ADR-RES; NCI-H226; SF-295; RPMI-8226; RXF 393; SN12C; NCI-H460; IGROV-1; HL-60; CAKI-1; HCT-15; UACC-257; COLO 205; SW-620.
Holding throughout (assay): growth of human tumour cells (NCI), 48 h

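Growth conditions: 96-well plates. Treatment: test compound, 48 hours, 5 concentrations. Analysis: linear interpolation between bracketing concentrations; unreached endpoints set to highest concentration. At the GI50, growth is halved.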 Active and inactive are the calls of the source. Cut-off read from the data, not from the text of the source: active = GI50 up to about 1.1 µM and inactive = higher. A value given as a limit tells only on which side of the number the result lay.

For `N=C/N=C/C(=S)O[C@@H]1C(=O)N2CCC[C@@]23CCCC[C@@H]13`, the GI50 in the experiment on MDA-MB-231, in the experiment on HCT-116, in the experiment with K562, in the experiment on NCI/ADR-RES, in the experiment with NCI-H226 and with SF-295 was > 12.5 µM (inactive) throughout. For the same compound, the GI50 in the experiment on RPMI-8226, in the experiment with RXF 393, in the experiment with SN12C, in the experiment on NCI-H460, with IGROV-1 and in the experiment with HL-60 was > 12.5 µM (inactive) throughout. Also, the GI50 with CAKI-1 was > 12.5 µM (inactive); in the experiment on HCT-15, above 12.5 µM; in the experiment with UACC-257, > 12.5 µM (inactive); in the experiment with COLO 205, > 12.5 µM (inactive).

Regarding `CC(=O)c1cc2c(s1)C(=O)c1ccsc1C2=O`, the GI50 in the experiment on MDA-MB-231 is 0.327 µM (active); in the experiment with HCT-116 it was 0.292 µM (active); in the experiment with K562, 0.407 µM (active); in the experiment with NCI/ADR-RES, 0.378 µM (active); in the experiment on NCI-H226, 1.6 µM (inactive); with SF-295, 0.16 µM (active). In addition, the GI50 was 3.85 µM (inactive) with RPMI-8226; 0.244 µM (active) in the experiment with RXF 393; 0.182 µM (active) in the experiment with SN12C; 1.75 µM (inactive) in the experiment on IGROV-1; 0.0442 µM (active) in the experiment on HL-60; 2.12 µM (inactive) in the experiment on CAKI-1. Further, the GI50 with HCT-15 is 0.179 µM; in the experiment on UACC-257, 0.132 µM (active); in the experiment on COLO 205, 19.1 µM (inactive); with SW-620, 0.275 µM (active).

As for `CSC12c3cc(C)n(-c4ccc(I)cc4)c3CC(C)(C)CN1C(=O)C2Oc1ccccc1` (stereo not drawn), the GI50 in the experiment with MDA-MB-231 was > 100 µM (inactive); with HCT-116, 48.6 µM (inactive); in the experiment with K562 it was > 87.1 µM (inactive); in the experiment on NCI/ADR-RES, > 100 µM (inactive); with NCI-H226, > 100 µM (inactive); in the experiment on SF-295 it was > 100 µM (inactive). For the same compound, the GI50 in the experiment on RPMI-8226 was > 71.1 µM (inactive); with RXF 393 it was > 100 µM (inactive); in the experiment with SN12C, > 100 µM (inactive); with NCI-H460, > 100 µM (inactive); in the experiment on IGROV-1 it was > 100 µM (inactive); in the experiment with HL-60, 93.3 µM (inactive). Also, the GI50 in the experiment with CAKI-1 was > 100 µM (inactive); with HCT-15 it was above 100 µM; in the experiment on UACC-257 it was > 66.5 µM (inactive); in the experiment on COLO 205 it was > 100 µM (inactive); in the experiment on SW-620 it was > 100 µM (inactive).

For `CC(C)(C)OC(=O)N1CCc2[nH][nH]c(=O)c2C1`, the GI50 in the experiment on MDA-MB-231, in the experiment with HCT-116, with K562, with NCI/ADR-RES, with NCI-H226 and in the experiment with SF-295 was > 100 µM (inactive) each time. Also, the GI50 in the experiment with RPMI-8226, in the experiment with RXF 393, in the experiment with SN12C, with NCI-H460, in the experiment with IGROV-1 and with HL-60 was > 100 µM (inactive) throughout. Further, the GI50 with CAKI-1 was > 100 µM (inactive); in the experiment on HCT-15 it was above 100 µM; in the experiment on UACC-257, > 100 µM (inactive); in the experiment on COLO 205, > 100 µM (inactive); in the experiment with SW-620, > 100 µM (inactive).

As for `CO[C@@H]1C[C@H](OC(N)=O)[C@@H]2C=C[C@@H]3/C=C(C)/C=C/[C@@H](C)[C@H]([C@H](C)[C@H](O)[C@@H](C)NC(C)=O)OC(=O)/C=C/C=C(C)\C=C\[C@]3(C)[C@@H]2C1`, the GI50 in the experiment with MDA-MB-231 is < 0.0316 µM (active); in the experiment on HCT-116 it was < 0.01 µM (active); in the experiment with K562, 0.0101 µM (active); with NCI/ADR-RES, < 0.01 µM (active); in the experiment with NCI-H226 it was < 0.01 µM (active); in the experiment on SF-295, < 0.01 µM (active). The GI50 with RPMI-8226, with RXF 393, in the experiment with NCI-H460, with IGROV-1, in the experiment with HL-60 and with CAKI-1 was < 0.01 µM (active) each time. Moreover, the GI50 with HCT-15 was below 0.01 µM; in the experiment with UACC-257, 0.0354 µM (active); in the experiment with COLO 205 it was < 0.01 µM (active); with SW-620 it was < 0.01 µM (active).

Consider `COS(C)(=O)=O` [METHANESULFONIC ACID METHYL ESTER], for which the GI50 in the experiment on MDA-MB-231, with HCT-116, in the experiment on K562, in the experiment on NCI/ADR-RES, with NCI-H226 and with RPMI-8226 was > 2 µM (inactive) each time. Further, the GI50 with RXF 393, in the experiment on SN12C, with NCI-H460, in the experiment on IGROV-1, with HL-60 and in the experiment with CAKI-1 was > 2 µM (inactive) each time. Besides, the GI50 with HCT-15 was above 2 µM; in the experiment with UACC-257, > 2 µM (inactive); in the experiment with COLO 205, > 2 µM (inactive); in the experiment on SW-620 it was > 2 µM (inactive).

For the compound `O=C1CC(NC(=O)C(F)(F)F)c2c1csc2Br` (stereo not drawn), the GI50 in the experiment with MDA-MB-231 was > 100 µM (inactive); with HCT-116, 32.8 µM (inactive); with K562 it was 48.3 µM (inactive); with NCI/ADR-RES, > 100 µM (inactive); in the experiment on NCI-H226, > 100 µM (inactive); in the experiment on SF-295, 5.77 µM (inactive). Moreover, the GI50 in the experiment on RPMI-8226 was 32.6 µM (inactive); in the experiment with RXF 393 it was 2.87 µM (inactive); in the experiment on SN12C it was 68.4 µM (inactive); in the experiment on NCI-H460, 1.51 µM (inactive); in the experiment on IGROV-1 it was > 100 µM (inactive); in the experiment on HL-60, 53.1 µM (inactive). For the same compound, the GI50 was 88.5 µM in the experiment on HCT-15, > 100 µM (inactive) in the experiment on UACC-257, > 100 µM (inactive) with COLO 205 and 31.8 µM (inactive) in the experiment on SW-620.

With `COC(=O)c1cccc(C)c1C1CN=NC12Cc1c(ccc(C)c1C)C2=O` (stereo not drawn), the GI50 was 26.7 µM (inactive) in the experiment with MDA-MB-231; 22.5 µM (inactive) in the experiment with HCT-116; 19 µM (inactive) with K562; 33.1 µM (inactive) in the experiment with NCI/ADR-RES; 81.8 µM (inactive) with NCI-H226; 17.3 µM (inactive) in the experiment with RPMI-8226. Moreover, the GI50 in the experiment with RXF 393 was 19.2 µM (inactive); in the experiment with SN12C it was 13.6 µM (inactive); with NCI-H460, 47.6 µM (inactive); in the experiment on IGROV-1, 76.4 µM (inactive); with HL-60, 12.6 µM (inactive); with CAKI-1, 91.2 µM (inactive). For the same compound, the GI50 was 16.4 µM in the experiment with HCT-15, > 100 µM (inactive) in the experiment on UACC-257 and 29.5 µM (inactive) in the experiment on SW-620.

`S=c1[nH]c2c(Cl)c(Cl)c(Cl)c(Cl)c2[nH]1`: the GI50 was 17.8 µM (inactive) in the experiment with MDA-MB-231; 21.1 µM (inactive) with HCT-116; 7.23 µM (inactive) with K562; 18.5 µM (inactive) in the experiment with NCI/ADR-RES; 17.5 µM (inactive) in the experiment on SF-295; 3.52 µM (inactive) with RPMI-8226. Moreover, the GI50 with RXF 393 was 18.1 µM (inactive); in the experiment with SN12C, 20.6 µM (inactive); in the experiment on NCI-H460 it was 19.4 µM (inactive); with IGROV-1, 14.1 µM (inactive); with HL-60, 1.75 µM (inactive); with CAKI-1 it was 25.7 µM (inactive). Moreover, the GI50 with HCT-15 is 22 µM; in the experiment with UACC-257, 19.4 µM (inactive); in the experiment on COLO 205, 17.2 µM (inactive); in the experiment with SW-620, 19.8 µM (inactive).

Turning to `Cc1nnc([C@@]2(C)CC[C@H]3[C@@H](CCC4=CC(=O)CC[C@@]43C)[C@@H]2CC#N)o1`, the GI50 in the experiment with MDA-MB-231, with HCT-116, in the experiment with K562, in the experiment with NCI/ADR-RES, with NCI-H226 and with SF-295 was > 100 µM (inactive) in each case. For the same compound, the GI50 with RPMI-8226, in the experiment with RXF 393, with SN12C, with IGROV-1, with HL-60 and with CAKI-1 was > 100 µM (inactive) throughout. In addition, the GI50 in the experiment with HCT-15 was above 100 µM; with UACC-257, > 100 µM (inactive); in the experiment with COLO 205 it was > 100 µM (inactive); with SW-620, > 100 µM (inactive).

With `C=C1C[C@@H](O)[C@@H](Br)C(C)(C)[C@@]12C=CC(=O)CC2`, the GI50 in the experiment on MDA-MB-231 is > 100 µM (inactive); with HCT-116 it was > 86.5 µM (inactive); in the experiment with K562, > 100 µM (inactive); in the experiment on NCI/ADR-RES, > 100 µM (inactive); with SF-295, > 100 µM (inactive); in the experiment with RPMI-8226, > 100 µM (inactive). For the same compound, the GI50 in the experiment with RXF 393 was > 100 µM (inactive); with SN12C it was > 100 µM (inactive); in the experiment on NCI-H460, > 100 µM (inactive); in the experiment on IGROV-1 it was 3.58 µM (inactive); in the experiment with HL-60, > 100 µM (inactive); in the experiment on CAKI-1, > 100 µM (inactive). In addition, the GI50 was above 100 µM with HCT-15, > 100 µM (inactive) with UACC-257, 1.77 µM (inactive) in the experiment on COLO 205 and > 100 µM (inactive) with SW-620.

Regarding `Cc1cs/c(=N\C(P(=O)(O)O)P(=O)(O)O)n1C`, the GI50 with MDA-MB-231, with HCT-116, in the experiment on K562, with NCI/ADR-RES, with NCI-H226 and with SF-295 was > 100 µM (inactive) in each case. Moreover, the GI50 is > 100 µM (inactive) with RPMI-8226; > 100 µM (inactive) in the experiment with RXF 393; > 100 µM (inactive) in the experiment with NCI-H460; > 100 µM (inactive) with IGROV-1; < 0.01 µM (active) in the experiment with HL-60; > 100 µM (inactive) in the experiment on CAKI-1. Further, the GI50 was above 100 µM in the experiment with HCT-15, > 100 µM (inactive) in the experiment on UACC-257, > 100 µM (inactive) in the experiment with COLO 205 and > 100 µM (inactive) with SW-620.
